# Values of other authors as cited in patent US7288270B1, “Therapeutic composition for the prevention and treatment of mucositis and mucosal disorders” (priority 2002, dated 2007).
# Experiments:
# [1] = test system: Gram negative bacteria that tend to colonize the oral cavity; details: patients undergoing radiation therapy
# mucositis [2] = details: human, in vivo
# [3] = test system: dermatophytes (Trichophyton mentagrophytes, Trichophyton tonsurans, Trichophyton rubrum, Epidermophyton floccosum, Microsporum gypseum)
# HSV-2 = details: dose-dependent, reversible manner
# Pseudomonas aeruginosa = details: in the solvent dimethyl sulfoxide; one range given for three species
# Staphylococcus aureus = details: in the solvent dimethyl sulfoxide; one range given for three species
# Enterococcus faecalis = details: in the solvent dimethyl sulfoxide; one range given for three species
# HSV-1 = details: dose-dependent, reversible manner
# mucositis [4] = details: subsequent randomized and controlled studies
# Herpes virus = details: in test tubes
# eczema = details: ointment, topical
smiles,measurement,setting,value
"[H]/N=C(\N/C(=N/[H])NCCCCCCNC(=N)NC(=N)Nc1ccc(Cl)cc1)Nc1ccc(Cl)cc1 [chlorhexidine, Chlorhexidine]",effectiveness against Gram negative bacteria of the oral cavity,[1],relatively ineffective
same,incidence of mucositis,mucositis [2],higher incidence of mucositis
"Oc1ccc(/C=C/c2cc(O)cc(O)c2)cc1 [resveratrol, 3,5,4′-trihdyroxystilbene]",concentration at which growth of dermatophytes was inhibited,[3],25 to 50 µg/mL
same,inhibition of HSV-2 replication,HSV-2,inhibit
same,concentration at which growth was inhibited,Pseudomonas aeruginosa,171 to 342 µg/mL
same,concentration at which growth was inhibited,Staphylococcus aureus,171 to 342 µg/mL
same,concentration at which growth was inhibited,Enterococcus faecalis,171 to 342 µg/mL
same,inhibition of HSV-1 replication,HSV-1,inhibit
CC(=O)CCCCn1c(=O)c2c(ncn2C)n(C)c1=O [pentoxifylline],benefit in mucositis,mucositis [4],failed to demonstrate any benefit
CC1(C)[C@@H](O[C@H]2O[C@H](C(=O)O)[C@@H](O)[C@H](O)[C@H]2O[C@@H]2O[C@H](C(=O)O)[C@@H](O)[C@H](O)[C@H]2O)CC[C@]2(C)[C@H]3C(=O)C=C4[C@@H]5C[C@@](C)(C(=O)O)CC[C@]5(C)CC[C@@]4(C)[C@]3(C)CC[C@@H]12 [glycyrrhizic acid],inhibition of herpes virus,Herpes virus,inhibited
CC1(C)[C@@H](O)CC[C@]2(C)[C@H]3C(=O)C=C4[C@@H]5C[C@@](C)(C(=O)O)CC[C@]5(C)CC[C@@]4(C)[C@]3(C)CC[C@@H]12 [glycyrrhetinic acid],improvement of eczema compared with hydrocortisone,eczema,as effective as hydrocortisone
